Marks after values point to notes of the source that are not given here.
Experiments:
[1] = Promoting excretion of 238Pu(IV) in mice by orally administered ligands; format: in vivo; conditions: of ligand by gavage three minutes after iv ^238Pu(IV); kill at 24 hours
From the text: (§1) Animal studies were completed using methods detailed in Radiation Protection Dosimetry, in press, P. W. Durbin et al., "In Vivo Chelation of Am(III), Pu(IV), Np(V) and U(VI) in Mice by TREN-(Me-3,2-HOPO)"; Radiation Protection Dosimetry, 17, No. 1, 1989, p. 351, P. W. Durbin et al., "Removal of ^238Pu(IV) from Mice by Polycatechoylate, -Hydroxamate or -Hydroxypyridinonate Ligands"; Radiation Research, 99, 1984, p. 85, P. W. Durbin et al., "Specific Sequestering Agents for the Actinides ..."; Radiation Research, 99, 1984, p. 106, P. W. Durbin et al., "Removal of Pu and Am from Beagles and Mice ..."; Radiation Research, 81, 1980, p. 170, R. D. Lloyd et al., and P. W. Durbin et al., "Specific Sequestering Agents for the Actinides ...". The foregoing articles are hereby incorporated by reference.
Radionuclides used in the animal studies came from a variety of sources. However, they can be purchased commercially. […]
The novel chelating agents of the present invention and comparative compounds were tested for their effectiveness in promoting excretion of ^238Pu(IV) by oral administration to mice as follows. […] The ^238Pu(IV) in skeleton, soft tissues, and separated excreta was determined by counting the ^234U L x-rays. […]

[2] = In vivo acute toxicity test of injected ligands in mice
Description: The test of acute toxicity of novel and comparative ligands was carried out as follows. Groups of five mice were each given a single i.p. injection of […] of ligand and a day for 10 days or given two i.p. injections of […] in 8 hours. The ligand was dissolved in 0.5 to 1.0 ml of saline at pH 7 to 8. After a period of observation, the mice were killed; selected tissues were removed and fixed for histopathological examination; and unusual findings at autopsy were recorded. […]

[3] = Promoting excretion of U(VI) in mice by injected ligand; format: in vivo
From the text: as §1
The ^232U was obtained from the Isotope Products Laboratory, Burbank, CA, and ^234,235U was obtained as U metal from long-held LBL storage. The two U sources were combined and dissolved in 6N HNO3, dried, and redissolved in 0.1 N HCl. The daughter radioactivities were removed by elution from a Dowex-50X4 column (22 cm length, 0.7 cm diameter, 1.5 mL·min^-1 flow rate) with 3.2N HCl. The U fractions (previously identified by a trial run with ^234,235U alone) were combined, dried, and redissolved in 0.14M NaCl at pH 5.5.
One of the comparative chelating agents TREN-Me-3,2-HOPO, was also tested for effectiveness in promoting excretion of ^241Am(III), ^237Np(V), and ^232U(VI) by injection into mice, as follows: Mice, in groups of five, each received an intravenous injection of (a) 1100 Bq of ^241AM(III) in 0.2 mL of citrate buffer, (b) 150 Bq of ^232UO2Cl2 plus 3.6 mg of ^235UO2Cl2 in 0.2 mL of saline, or (c) 200 Bq of ^237NpO2Cl (7.5 mg of ^237NpO2Cl) in 0.2 mL of saline. Three to five minutes later, […] of TREN-Me-3,2-HOPO was injected intraperitoneally in 0.5 mL of saline. The mice were killed 24 hours after the actinide injection, frozen, and dissected after partial thawing. The skeleton, soft tissues, and separated excreta were radioanalyzed by counting the ^241Am gamma rays, or the alpha particles emitted by ^237Np or ^232U (and its ingrowing daughters). Removal of those actinides from mice by injected TREN-Me-3,2-HOPO is summarized in Table 5, which also includes data for mice similarly treated with CaNa3-DTPA and for actinide-injected controls. […] The structure of Am(III)-TREN-Me-3,2-HOPO is considered to resemble that of the Gd(III) complexes (see example 20). Complexation of the fraction of Np(V) that is reduced in vivo to Np(IV) is considered to resemble that of Pu(IV). Complexation of U(VI) is considered to take place through binding to UO2^2+.

[4] = protocol I, 100 µmol kg^-1 x 10 daily i.p., study length 11 d
[5] = protocol I, 100 µmol kg^-1 x 10 daily i.p., study length 21 d
[6] = protocol II, 500 µmol kg^-1 x 2 in 8 h, study length 8 d
[7] = U(VI), ligand 30 mmol.kg-1 i.p at 3 to 5 min after actinide i.v., kill at 24 h
[8] = U(VI), ligand 30 mmol.kg-1 i.p at 3 to 5 min after actinide i.v., kill at 24 h, pooled

Structure (SMILES): Cn1ccc(C(=O)NCCN(CCNC(=O)c2ccn(C)c(=O)c2O)CCNC(=O)c2ccn(C)c(=O)c2O)c(O)c1=O [TREN-Me-3,2-HOPO, N,N,N,-Tris[(3-hydroxy-1-methyl-2-oxo-1,2-dihydropyridin-4-yl)carboxamidoethyl]-amine]
- Pu removal by oral administration (in words) [1]: the more effective in both (by oral and injection) cases
- toxicity (in words) ([2]; even at the relatively high dosage of 2x500 µmol/kg in 8 hours): low toxicity
- no. of survivors [2, 4]: 5
- percent control mean + SD: body weight [2, 4]: 102 ± 1 percent control
- percent control mean + SD: plasma urea N [2, 4]: 112 ± 10 percent control
- no. of survivors [2, 5]: 5
- percent control mean + SD: body weight [2, 5]: 106 ± 4 percent control
- percent control mean + SD: plasma urea N [2, 5]: 120 ± 9 percent control
- no. of survivors [2, 6]: 19
- percent control mean + SD: body weight [2, 6]: 101 ± 4 percent control
- percent control mean + SD: plasma urea N [2, 6]: 119 ± 15 percent control
- percent of injected actinide ± SD at 24 h, tissues: kidneys [3, 7]: 9.4 ± 6.0^d,e percent of injected actinide
- percent of injected actinide ± SD at 24 h, tissues: skeleton [3, 7]: 16 ± 2.4% of injected actinide
- percent of injected actinide ± SD at 24 h, tissues: soft tissue [3, 7]: 1.6 ± 0.3% of injected actinide
- percent of injected actinide ± SD at 24 h, whole body [3, 7]: 27 ± 8.5^d,e percent of injected actinide
- percent of injected actinide ± SD at 24 h, tissues: liver ([3]; U(VI), ligand 30 mmol.kg-1 i.p at 3 to 5 min after actinide i.v., kill at 24 h, livers of some groups pooled): 0.6 ± 0.3% of injected actinide
- percent of injected actinide at 24 h, excreta: feces and GI contents [3, 8]: 2.3% of injected actinide
- percent of injected actinide at 24 h, excreta: urine 0-24 h [3, 8]: 70% of injected actinide
- U burden in the kidneys compared with controls (in words) ([3]; intraperitoneally three to five minutes after actinide): more than one-half of the U burden in the kidneys was removed
